Measurements taken from ChEMBL document CHEMBL1144705, “Erythrina alkaloids and a pterocarpan from the bark of Erythrina subumbrans” (J Nat Prod, 2008).
Converted amounts (≈) assume the structure as drawn. The source made the active and inactive calls. The rule behind the calls is not given here.

Columns and labels:
[1] = test system: Plasmodium falciparum; assay: Antimalarial activity against multidrug-resistant Plasmodium falciparum K1 by microculture radioisotope assay; assay type: functional, organism-based
[2] = test system: Mycobacterium tuberculosis; assay: Antimycobacterial activity against Mycobacterium tuberculosis H37Ra by Alamar blue assay; assay type: functional
[3] = test system: KB; assay: Cytotoxicity against human KB cells; assay type: functional, cell-based
[4] = test system: NCI-H187; assay: Cytotoxicity against human NCI-H187 cells; assay type: functional, cell-based
[5] = test system: BC; assay: (§1) Cytotoxicity against human BC cells; assay type: functional, cell-based
[6] = as §1; assay type: functional, cell-based

CC(C)=CCc1cc([C@@H]2CC(=O)c3c(O)cc(O)cc3O2)cc(CC=C(C)C)c1O [ABYSSINONE V]
IC50 [1]: 7 µg/mL (≈ 17.1 µM)
MIC [2]: 100 µg/mL (≈ 245 µM)

COc1cc2c(cc1OC)[C@]13C[C@@H](OC)[C@H](O)C=C1CCN3C(=O)C2=O
Activity [3]: inactive
Activity [1]: inactive
Activity [4]: inactive
Activity [5]: inactive
Activity [2]: inactive

CO[C@@H]1C[C@@]23C(=C[C@H]1O)CCN2C(=O)C(=O)c1cc2c(cc13)OCO2
Activity [3]: inactive
Activity [1]: inactive
Activity [4]: inactive
Activity [5]: inactive
Activity [2]: inactive

COc1ccc2c(c1)OC[C@@]1(O)c3ccc4c(c3O[C@@H]21)C[C@H](O)C(C)(C)O4 [ERYVARIN A]
MIC [2]: 100 µg/mL (≈ 270 µM)

COc1c(CC=C(C)C)c(O)cc2c1[C@@H]1Oc3c(ccc(O)c3CC=C(C)C)[C@@H]1CO2
IC50 [3]: 7.6 µg/mL (≈ 18 µM)
IC50 [4]: 7.6 µg/mL (≈ 18 µM)
IC50 [6]: 7.6 µg/mL (≈ 18 µM)
MIC [2]: 50 µg/mL (≈ 118 µM)

CC(C)=CCc1cc([C@@H]2CC(=O)c3c(O)cc(O)c(CC=C(C)C)c3O2)ccc1O [LESPEDEZAFLAVANONE B]
IC50 [3]: 7.6 µg/mL (≈ 18.6 µM)
IC50 [1]: 3.7 µg/mL (≈ 9.06 µM)
IC50 [4]: 7.6 µg/mL (≈ 18.6 µM)
IC50 [6]: 7.6 µg/mL (≈ 18.6 µM)
MIC [2]: 100 µg/mL (≈ 245 µM)
